Patent US20250085273A1, “NOVEL RAPID DRUG DISCOVERY FOR SEPSIS AND AGENTS FOR USE AS SEPSIS THERAPY” (priority 2023, published 2025)
Where a name gives a salt, the structure may show the parent alone. Read-outs that look alike come from different tables or passages of the source.

What was measured:
[1] = tested on: 3-dpf Zebrafish Embryos Challenged with LPS (P. aeruginosa 60 μg/mL); format: in vivo, Danio rerio; settings: P. aeruginosa LPS 60 μg/mL; for rescue of tail edema and mortality (sepsis rescue rate) at 3-dpf / Percent Rescue (Mort + Tail Edema) / 3 dpf Embryos Percent Rescue (Mort + Tail Edema): compound 10 μM; for Percent Rescue (Mort + Tail Edema): 3-dpf embryos, n=16; for 3 dpf Embryos Percent Rescue (Mort + Tail Edema): initial 3-dpf screen shown for reference
Experimental: Healthy, normally developing embryos collected from the adult AB zebrafish spawning events were treated with 75 μM of 1-phenyl 2-thiourea (PTU) in EM prior to 24 hours post fertilization (hpf) to block pigmentation formation (Karlsson et al, 2001). These embryos were then placed into an incubator at 28.5° C. until they reached 3-dpf. Embryos were then removed from the incubator and plated individually into the wells of 96 well plates containing 50 μL of EM.
A super stock of 120 μg/mL of P. aeruginosa LPS was made up in EM in a glass container. This stock was then used to make sub stocks of 120 μg/mL P. aeruginosa LPS (positive control) and 120 μg/mL P. aeruginosa LPS containing 20 μM of test drug in glass scintillation vials. Immediately after the sub stocks were made, the wells were dosed with either 50 μL of 120 μg/mL of P. aeruginosa, 120 μg/mL of P. aeruginosa with 20 μM of test drug, or EM (1:1 Dilution). Each 96 well plate had one LPS positive control (n=16), 4 different test drugs with P. aeruginosa LPS (n=16 per drug), and one negative control (n=16). Once the plates were dosed, they were covered with parafilm and placed into an incubator at 28.5° C. The plates were removed at 6- and 24-hours post exposure to be scored for tail edema and mortality. All 644 drugs evaluated for rescue from mortality and tail edema induced by P. aeruginosa LPS exposure as compared to LPS-treated controls after 24 hours of exposure.
3-dpf embryos were challenged with 60 μg/mL P. aeruginosa LPS in combination with single 10 μM concentration of each compound for 24 hours (n=16 fish per compound). […] Other 29 compounds exceeded 60% rescue of tail edema and mortality at 24 hours post exposure.

[2] = tested on: 5-dpf zebrafish larvae challenged with P. aeruginosa LPS 60 μg/mL; format: in vivo, Danio rerio; settings: compound 10 μM; for 5 dpf Embryos Percent Rescue (Mort + Tail Edema): 5-dpf larvae
From the text: Confirmatory testing followed the same methods as the initial testing but used 5-dpf larvae instead of the 3-dpf larvae that were used for the initial screening because they were easier to handle and replicated the methods of Philip et al. (2017).
Next, follow-on 5-dpf screening was implemented to confirm initial screening with more larvae. Zebrafish swim faster at 5-dpf (requiring more time to load 96 plates), and all major organ systems are functioning at 5-dpf and thus determined as advantageous for follow-on confirmation.

Molecule: Clc1ccc(CCCOCCCN2CCCCC2)cc1 [Compound 126, Pitolisant hydrochloride]
- rescue of tail edema and mortality (sepsis rescue rate) at 3-dpf ([1]; 3-dpf, 24 hours, hydrochloride): 38%

Molecule: O=C(Nc1nc(-c2cc(Cl)cs2)c(N2CCN(C3CCCCC3)CC2)s1)c1cnc(N2CCC(C(=O)O)CC2)c(Cl)c1 [Compound 3, Avatrombopag (hydrochloride)]
- Percent Rescue (Mort + Tail Edema) ([1]; 24 hours, hydrochloride): 56%

Molecule: O=C(Nc1nc(-c2cc(Cl)cs2)c(N2CCN(C3CCCCC3)CC2)s1)c1cnc(N2CCC(C(=O)O)CC2)c(Cl)c1 [Compound 31, Avatrombopag]
- Percent Rescue (Mort + Tail Edema) ([1]; 24 hours): 75%
- 3 dpf Embryos Percent Rescue (Mort + Tail Edema) [1]: 75%
- 5 dpf Embryos Percent Rescue (Mort + Tail Edema) [2]: 31%

Molecule: CCN(CC)CCNC(=O)c1c(C)[nH]c(/C=C2\C(=O)Nc3ccc(F)cc32)c1C [Compound 621, Sunitinib Malate]
- Percent Rescue (Mort + Tail Edema) ([1]; 24 hours): 94%
- rescue of tail edema and mortality (sepsis rescue rate) at 3-dpf ([1]; 3-dpf, 24 hours): 88%
- 3 dpf Embryos Percent Rescue (Mort + Tail Edema) [1]: 94%
- 5 dpf Embryos Percent Rescue (Mort + Tail Edema) [2]: 100%
- rescue of tail edema and mortality (sepsis rescue rate) at 5-dpf [2]: 100%

Molecule: CC(C)(C(=O)O)c1ccc(C(O)CCCN2CCC(C(O)(c3ccccc3)c3ccccc3)CC2)cc1 (centres unmarked) [Compound 137, Fexofenadine]
- rescue of tail edema in 3-dpf initial screen ([1]; 3-dpf): did not rescue tail edema
- mortality (survival) in 3-dpf initial screen ([1]; 3-dpf, 24 hours): did rescue mortality

Molecule: CNCC[C@H](Oc1cccc2ccccc12)c1cccs1 [Compound 386, Duloxetine (hydrochloride)]
- Percent Rescue (Mort + Tail Edema) ([1]; 24 hours): 50%

Molecule: Nc1ccc(S(=O)(=O)c2ccc(N)cc2)cc1 [Compound 155, Dapsone]
- Percent Rescue (Mort + Tail Edema) ([1]; 24 hours): 69%
- 3 dpf Embryos Percent Rescue (Mort + Tail Edema) [1]: 69%
- 5 dpf Embryos Percent Rescue (Mort + Tail Edema) [2]: 25%

Molecule: CCN(CC)CC(=O)Nc1c(C)cccc1C [Compound 549, Lidocaine hydrochloride]
- Percent Rescue (Mort + Tail Edema) ([1]; 24 hours): 56%

Molecule: Cc1nc2n(c(=O)c1CCN1CCC(c3noc4cc(F)ccc34)CC1)CCCC2O (centres unmarked) [Compound 61, Paliperidone]
- rescue of tail edema and mortality (sepsis rescue rate) at 3-dpf ([1]; 3-dpf, 24 hours): 6%

Molecule: CN(C)CCOC(C)(c1ccccc1)c1ccc(Cl)cc1 (centres unmarked) [Compound 157, Chlorphenoxamine]
- Percent Rescue (Mort + Tail Edema) ([1]; 24 hours): 50%

Molecule: O=C(O)c1cc2ccccc2c(Cc2c(O)c(C(=O)O)cc3ccccc23)c1O.OCCOCCN1CCN(C(c2ccccc2)c2ccc(Cl)cc2)CC1 [Compound 207, Hydroxyzine (pamoate)]
- Percent Rescue (Mort + Tail Edema) ([1]; 24 hours): 50%

Molecule: CN(C)[C@@H](CCOc1cccc2ccccc12)c1ccccc1 [Compound 156, Dapoxetine (hydrochloride)]
- Percent Rescue (Mort + Tail Edema) ([1]; 24 hours): 100%
- rescue of tail edema and mortality (sepsis rescue rate) at 3-dpf ([1]; 3-dpf, 24 hours): 100%
- 3 dpf Embryos Percent Rescue (Mort + Tail Edema) [1]: 100%
- 5 dpf Embryos Percent Rescue (Mort + Tail Edema) [2]: 38%
- rescue of tail edema and mortality (sepsis rescue rate) at 5-dpf [2]: 38%

Molecule: Clc1ccc(CCCOCCCN2CCCCC2)cc1 [Compound 589, Pitolisant hydrochloride]
- Percent Rescue (Mort + Tail Edema) ([1]; 24 hours, hydrochloride): 56%
- rescue of tail edema and mortality (sepsis rescue rate) at 3-dpf ([1]; 3-dpf, 24 hours, hydrochloride): 56%

Molecule: CNCCc1ccccn1 [Compound 310, Betahistine]
- Percent Rescue (Mort + Tail Edema) ([1]; 24 hours): 56%

Molecule: Cc1nc2n(c(=O)c1CCN1CCC(c3noc4cc(F)ccc34)CC1)CCCC2 [Compound 4, Risperidone]
- rescue of tail edema and mortality (sepsis rescue rate) at 3-dpf ([1]; 3-dpf, 24 hours): 6%

Molecule: Gabexate (mesylate) [Compound 8]
- Percent Rescue (Mort + Tail Edema) ([1]; 24 hours): 88%
- 3 dpf Embryos Percent Rescue (Mort + Tail Edema) [1]: 88%
- 5 dpf Embryos Percent Rescue (Mort + Tail Edema) [2]: 31%
